Converted amounts (≈) assume the structure as drawn. Read-outs that look alike come from different tables or passages of the source.
Key:
[1] = tested on: L929 (Mouse Connective Cell Line); assay: MTT assay (antipsoriatic activity); assay type: cell-based
Experimental: The L929 mouse connective tissue cell line was received from the National Center for Cell Sciences (NCCS), Pune, India and grown in DMEM media containing 10% fetal bovine serum. The cells were kept at 37 °C in a 5% CO2 incubator and seeded at a density of 1 × 10⁴ cells/mL in culture media for 24 h. To conduct the experiment, 70 μL of cell suspension (1 × 10^4 cells/well) were added to 100 μL of culture media on a 96-well tissue culture plate. Sample was added to wells at varying doses (25, 50, and 100 μg/mL), while control wells contained 0.2% DMSO in PBS with cell culture. All experiments were performed in triplicate to ensure reliability and reproducibility of the results. Control wells were utilized to evaluate cell viability and calculate the percentage of cells that survived after incubation. The cultures were incubated at 37 °C with 5% CO2 for 24 h in a CO2 incubator (Thermo Scientific BB150, Thermo Fisher Scientific Inc., Waltham, MA, USA). After incubation, the media were removed and 20 μL of MTT reagent (5 mg/mL in PBS) was added. The plates were incubated for a further 4 h at 37 °C to allow live cells to convert the MTT into formazan crystals, which were then viewed under a microscope. After removing the medium, 200 μL of DMSO was added and incubated at 37 °C for 10 min while protected from light with aluminum foil. Each sample’s absorbance was measured at 570 nm using an ELISA microplate reader (Benesphera E21, Avantor Performance Materials India Private Limited, Gurgoan, India), with triplicates tested for accuracy.

[2] = Solubility screening of anthralin in oils, surfactants and co-surfactants; assay type: physicochemical; conditions: read-out: drug solubility
Experimental: Excess drug was dissolved in 1 mL of the aforementioned oils, surfactant, and co-surfactant, and vortexed continuously for 48 h. The samples were centrifuged at 5000–7000 rpm for 15 min after which they were left to rest for 72 h.

[3] = pKa and percentage ionization (Henderson–Hasselbalch equation); assay type: physicochemical
From the text: One study reported an average pH of 5.2 in psoriatic skin, compared to 5.6 in healthy skin [36]. […] The optimal pH range for topical application is 6–7 to balance efficacy and skin irritation.

[4] = previously reported value ref 37; cited from earlier work
[5] = tested on: Propionibacterium; assay: Antibacterial activity, zone of inhibition; assay type: cell-based; conditions: 24 h incubation
Experimental: Nutrient Agar (NA-Himedia, HiMedia Laboratories Pvt. Ltd., Mumbai, India) was prepared by dissolving 28.0 g in 1000 mL distilled water, sterilized at 121 °C for 15 min, and poured into sterile Petri plates. Propionibacterium was used for microbial assays. A 24 h pure culture was prepared by suspending the microorganisms in saline solution, streaking onto culture slants, and incubating at 37 °C. Standard solutions, including Clindamycin (25 mg/mL), were prepared in sterile water and stored under refrigeration. Plates were prepared using the pour plate method by pouring melted agar into sterile plates and allowing its solidification before use.
A sterile, non-toxic cotton swab was dipped in the standardized inoculums (turbidity was adjusted to achieve confluent growth on the Petri plate), and the entire plate’s agar surface was streaked with the swab three times, turning the plate at a 60-degree angle between streaking. The streaked inoculums were then allowed to dry for 5–15 min with the lid on. Then, using sterile well punches, a bore was punched on the prepared plates (8 mm). With the assistance of a sterile micropipette, a 10 μL dosage of produced microemulsion and standard medication Clindamycin were injected into each bore in an aseptic environment. Plates were maintained at room temperature for 30 min before being incubated for 24 h at 37 °C. The diameter of the inhibitory zones was measured using a scale in mm.
The antibacterial potential of test compounds was assessed using the mean diameter of the zone of inhibition around the disc in millimeters. The zones of inhibition of the studied microorganisms by the substances were determined on a millimeter scale.

With `O=c1[nH]cc(F)c(=O)[nH]1` [Batch 5-FU, 5-flurouracil] the “Cell Viability %” value ([1]; L929, 25 µg/mL, 24 h) was 33.90%, the Inhibition % ([1]; L929, 25 µg/mL, 24 h) was 66.10% and the “Cell Viability %” value ([1]; L929, 50 µg/mL, 24 h) was 29.87%. For the same compound, the Inhibition % ([1]; L929, 50 µg/mL, 24 h) was 70.13%, the “Cell Viability %” value ([1]; L929, 100 µg/mL, 24 h) was 21.00% and the Inhibition % ([1]; L929, 100 µg/mL, 24 h) was 79.00%.
Compound `O=C1c2c(O)cccc2Cc2cccc(O)c21` [Anthralin] has a solubility at 48 h ([2]; PEG 400, 27 °C, organic solvent or mixture, thermodynamic from solid, in PEG 400, room temperature (27 ± 1 °C)) of 14.1 mg/mL (≈ 62.2 mM), a solubility at 48 h ([2]; Span 20, thermodynamic from solid, in Span 20) of 4.23 mg/mL (≈ 18.7 mM) and a solubility at 48 h ([2]; Transcutol-P, organic solvent or mixture, thermodynamic from solid, in Transcutol-P) of 15.6 mg/mL (≈ 68.8 mM). The solubility at 48 h ([2]; Tween 20, thermodynamic from solid, in Tween 20) was 11.6 mg/mL (≈ 51.2 mM), the solubility at 48 h ([2]; Tween 80, 27 °C, thermodynamic from solid, in Tween 80, room temperature (27 ± 1 °C)) was 56 mg/mL (≈ 248 mM) and the solubility at 48 h ([2]; castor oil, oil or lipid, thermodynamic from solid, in castor oil) was 23.9 mg/mL (≈ 106 mM). For the same compound, the solubility at 48 h ([2]; ethanol, organic solvent or mixture, thermodynamic from solid, in ethanol) was 9.23 mg/mL (≈ 40.8 mM), the solubility at 48 h ([2]; oleic acid, 27 °C, oil or lipid, thermodynamic from solid, in oleic acid, room temperature (27 ± 1 °C)) was 44.2 mg/mL (≈ 196 mM) and the solubility at 48 h ([2]; olive oil, oil or lipid, thermodynamic from solid, in olive oil) was 28.2 mg/mL (≈ 125 mM). For the same compound, the Inhibition % ([1]; L929, 100 µg/mL, 24 h) was 60.345%, the inhibition at 25 µg/mL ([1]; Mus musculus, L929, 24 h, L929, 25 µg/mL, 24 h) was 47.9% and the inhibition at 50 µg/mL ([1]; Mus musculus, L929, 24 h, L929, 50 µg/mL, 24 h) was 53%. It also gave an inhibition at 100 µg/mL ([1]; Mus musculus, L929, 24 h, L929, 100 µg/mL, 24 h) of 60.3%, a viability at 25 µg/mL ([1]; Mus musculus, L929, 25 µg/mL, 24 h) of 52.1% and a viability at 50 µg/mL ([1]; Mus musculus, L929, 50 µg/mL, 24 h) of 47%. For the same compound, the viability at 100 µg/mL ([1]; Mus musculus, L929, 100 µg/mL, 24 h) was 39.7%, the IC50 ([1]; Mus musculus, L929, from linear regression of % inhibition vs. concentration) was 36.2 µg/mL (≈ 0.16 mM) and the percentage ionization ([3]; pH 5.2 (psoriatic skin)) was 0.01%. The percentage ionization ([3]; pH 5.6 (healthy skin)) was 0.03% and the pKa [4] was 9.06.
In the case of `CCC[C@@H]1C[C@@H](C(=O)N[C@@H]([C@H]2O[C@H](SC)[C@H](O)[C@@H](O)[C@H]2O)[C@H](C)Cl)N(C)C1` [Clindamycin], the zone of inhibition at 25 µg/mL ([5]; 25 μg/mL) is reported as 11.3 ± 1.15 mm, the zone of inhibition at 50 µg/mL ([5]; 50 μg/mL) is reported as 13.7 ± 1.15 mm and the zone of inhibition at 100 µg/mL ([5]; 100 μg/mL) is reported as 20.7 ± 1.15 mm.

Reference: publication PMC12195956 (Molecules, 2025)
